In the experiment the test system is MV-4-11 cells. Kind of experiment: Gene expression microarray analysis (Affymetrix PrimeView) and GSEA. In kind it is cell-based, human. Also on record: RFU PODN (11730768_x_at) / Fold change /veh PODN (11730768_x_at) / RFU LINC00158 (11744669_a_at) / Fold change /veh LINC00158 (11744669_a_at) / RFU DUSP10 (11751237_a_at) / Fold change /veh DUSP10 (11751237_a_at) / RFU ID3 (11757404_x_at) / Fold change /veh ID3 (11757404_x_at) / RFU PLEKHG5 (11737974_s_at) / Fold change /veh PLEKHG5 (11737974_s_at) / RFU LRRC4B (11730491_at) / Fold change /veh LRRC4B (11730491_at) / RFU GIMAP4 (11747438_a_at) / Fold change /veh GIMAP4 (11747438_a_at) / RFU KRT8 (11758183_x_at) / Fold change /veh KRT8 (11758183_x_at) / RFU CNN1 (11734310_a_at) / Fold change /veh CNN1 (11734310_a_at) / RFU VPS37D (11726825_at) / Fold change /veh VPS37D (11726825_at) / RFU C10orf10 (11716522_x_at) / Fold change /veh C10orf10 (11716522_x_at) / RFU KIR2DL2 /// KIR2DL4 /// KIR2DL5A /// KIR2DL5B /// KIR2DS1 /// KIR2DS2 /// KIR2DS3 /// KIR2DS4 /// KIR3DL3 /// KIR3DL3 /// KIR3DS1 (11738374_at) / Fold change /veh KIR2DL2 /// KIR2DL4 /// KIR2DL5A /// KIR2DL5B /// KIR2DS1 /// KIR2DS2 /// KIR2DS3 /// KIR2DS4 /// KIR3DL3 /// KIR3DL3 /// KIR3DS1 (11738374_at) / RFU C1QL1 (11718748_at) / Fold change /veh C1QL1 (11718748_at) / RFU TMPRSS4 (11747572_a_at) / Fold change /veh TMPRSS4 (11747572_a_at) / RFU HAMP (11756126_x_at) / Fold change /veh HAMP (11756126_x_at) / RFU RNFT2 (11725882_a_at) / Fold change /veh RNFT2 (11725882_a_at) / RFU NR4A2 (11747474_a_at) / Fold change /veh NR4A2 (11747474_a_at) / RFU ABCC12 (11746883_a_at) / Fold change /veh ABCC12 (11746883_a_at) / RFU TMEM136 (11760407_x_at) / Fold change /veh TMEM136 (11760407_x_at) / RFU CLDN22 /// WWC2 (11732394_at) / Fold change /veh CLDN22 /// WWC2 (11732394_at) / RFU HLA-DPB1 (11760878_x_at) / Fold change /veh HLA-DPB1 (11760878_x_at) / RFU SPINT1 (11716480_a_at) / Fold change /veh SPINT1 (11716480_a_at) / RFU GAP43 (11754022_s_at) / Fold change /veh GAP43 (11754022_s_at) / RFU A4GNT (11735810_at) / Fold change /veh A4GNT (11735810_at) / RFU PRB3 (11715151_x_at) / Fold change /veh PRB3 (11715151_x_at) / RFU TUBB4B (11761932_at) / Fold change /veh TUBB4B (11761932_at) / RFU CAPN14 (11732068_a_at) / Fold change /veh CAPN14 (11732068_a_at) / RFU TMCC2 (11721928_a_at) / Fold change /veh TMCC2 (11721928_a_at) / RFU IRGQ (11745062_a_at) / Fold change /veh IRGQ (11745062_a_at) / RFU FAM174B (11720279_a_at) / Fold change /veh FAM174B (11720279_a_at) / RFU TMPRSS4 (11748680_a_at) / Fold change /veh TMPRSS4 (11748680_a_at) / RFU FAM212B (11763350_a_at) / Fold change /veh FAM212B (11763350_a_at) / RFU PLEKHG5 (11743358_a_at) / Fold change /veh PLEKHG5 (11743358_a_at) / RFU ZSCAN30 (11745921_a_at) / Fold change /veh ZSCAN30 (11745921_a_at) / RFU CMKLR1 (11741424_a_at) / Fold change /veh CMKLR1 (11741424_a_at) / RFU LOC101060620 /// MAPK8IP1 (11723275_at) / Fold change /veh LOC101060620 /// MAPK8IP1 (11723275_at) / RFU SPTSSB (11747773_x_at) / Fold change /veh SPTSSB (11747773_x_at) / RFU PRSS12 (11739890_at) / Fold change /veh PRSS12 (11739890_at) / RFU BIN1 (11741810_x_at) / Fold change /veh BIN1 (11741810_x_at) / RFU WNT11 (11732464_a_at) / Fold change /veh WNT11 (11732464_a_at) / RFU C10orf10 (11716521_a_at) / Fold change /veh C10orf10 (11716521_a_at) / RFU C5orf56 (11738089_at) / Fold change /veh C5orf56 (11738089_at) / RFU CYB561 (11721691_x_at) / Fold change /veh CYB561 (11721691_x_at) / RFU ANKRD19P (11752326_a_at) / Fold change /veh ANKRD19P (11752326_a_at) / RFU OR2T12 /// OR2T33 /// OR2T8 (11738714_s_at) / Fold change /veh OR2T12 /// OR2T33 /// OR2T8 (11738714_s_at) / RFU VCAN (11748164_a_at) / Fold change /veh VCAN (11748164_a_at) / RFU JSRP1 (11732532_at) / Fold change /veh JSRP1 (11732532_at) / RFU KRTAP10-11 (11738290_x_at) / Fold change /veh KRTAP10-11 (11738290_x_at) / RFU MYO3A (11730013_a_at) / Fold change /veh MYO3A (11730013_a_at) / RFU EBF3 (11725865_a_at) / Fold change /veh EBF3 (11725865_a_at) / RFU CAMK2N1 (11719241_x_at) / Fold change /veh CAMK2N1 (11719241_x_at) / RFU C5orf56 (11738088_a_at) / Fold change /veh C5orf56 (11738088_a_at) / RFU OLFML3 (11715873_a_at) / Fold change /veh OLFML3 (11715873_a_at) / RFU LOC100653217 /// NTM (11731650_a_at) / Fold change /veh LOC100653217 /// NTM (11731650_a_at) / RFU MAPK11 (11762145_a_at) / Fold change /veh MAPK11 (11762145_a_at) / RFU FIZ1 (11724087_x_at) / Fold change /veh FIZ1 (11724087_x_at) / RFU OASL (11726364_x_at) / Fold change /veh OASL (11726364_x_at) / RFU SOX15 (11748057_x_at) / Fold change /veh SOX15 (11748057_x_at) / RFU CD79A (11719716_a_at) / Fold change /veh CD79A (11719716_a_at) / RFU HIST1H1D (11736915_at) / Fold change /veh HIST1H1D (11736915_at) / RFU CASKIN2 (11723855_a_at) / Fold change /veh CASKIN2 (11723855_a_at) / RFU LOC730098 (11760151_x_at) / Fold change /veh LOC730098 (11760151_x_at) / RFU OR4N2 (11742367_at) / Fold change /veh OR4N2 (11742367_at) / RFU PRRT2 (11749266_a_at) / Fold change /veh PRRT2 (11749266_a_at) / RFU SNX32 (11753110_a_at) / Fold change /veh SNX32 (11753110_a_at) / RFU CDHR5 (11726645_a_at) / Fold change /veh CDHR5 (11726645_a_at) / RFU RCAN1 (11760418_a_at) / Fold change /veh RCAN1 (11760418_a_at) / RFU FAM167A (11723789_a_at) / Fold change /veh FAM167A (11723789_a_at) / RFU FAM26E (11764081_at) / Fold change /veh FAM26E (11764081_at) / RFU ISYNA1 (11749810_s_at) / Fold change /veh ISYNA1 (11749810_s_at) / RFU ACY1 (11761880_at) / Fold change /veh ACY1 (11761880_at) / RFU 11764098_at / Fold change /veh 11764098_at / RFU SAMD14 (11745864_x_at) / Fold change /veh SAMD14 (11745864_x_at) / RFU NPB (11741838_a_at) / Fold change /veh NPB (11741838_a_at) / RFU TMPRSS6 (11731388_a_at) / Fold change /veh TMPRSS6 (11731388_a_at) / RFU KRTAP10-2 (11738614_at) / Fold change /veh KRTAP10-2 (11738614_at) / RFU ARHGAP8 /// PRR5-ARHGAP8 (11727945_x_at) / Fold change /veh ARHGAP8 /// PRR5-ARHGAP8 (11727945_x_at) / RFU KRTAP5-7 /// NADSYN1 (11734609_at) / Fold change /veh KRTAP5-7 /// NADSYN1 (11734609_at) / RFU RASL12 (11751679_a_at) / Fold change /veh RASL12 (11751679_a_at) / RFU CDKN2B (11736163_a_at) / Fold change /veh CDKN2B (11736163_a_at) / RFU PRF1 (11729649_at) / Fold change /veh PRF1 (11729649_at) / RFU, ZNF638 /// ZNF638-IT1 / Fold change vs veh, ZNF638 /// ZNF638-IT1 / RFU, PANK3 / Fold change vs veh, PANK3 / RFU, SH3YL1 / Fold change vs veh, SH3YL1 / RFU, ZEB2 / Fold change vs veh, ZEB2 / RFU, NRIP1 / Fold change vs veh, NRIP1 / RFU, PTTG1IP / Fold change vs veh, PTTG1IP / RFU, CAPN2 / Fold change vs veh, CAPN2 / RFU, MED14 / Fold change vs veh, MED14 / RFU, SNORA58 / Fold change vs veh, SNORA58 / RFU, C1orf63 / Fold change vs veh, C1orf63 / RFU, LRRFIP1 / Fold change vs veh, LRRFIP1 / RFU, NDUFAF7 / Fold change vs veh, NDUFAF7 / RFU, SLC12A2 / Fold change vs veh, SLC12A2 / RFU, IBTK / Fold change vs veh, IBTK / RFU, ESF1 / Fold change vs veh, ESF1 / Fold change vs veh, TMEM50B / RFU, TAOK1 / Fold change vs veh, TAOK1 / RFU, ACBD3 / Fold change vs veh, ACBD3 / RFU, TMA16 / Fold change vs veh, TMA16 / RFU, RWDD3 / Fold change vs veh, RWDD3 / RFU, BCAT1 / Fold change vs veh, BCAT1 / RFU, EDEM3 / Fold change vs veh, EDEM3 / RFU, TMEM33 / Fold change vs veh, TMEM33 / RFU, WDR75 / Fold change vs veh, WDR75 / RFU, AHCTF1 / Fold change vs veh, AHCTF1 / RFU, TFRC / Fold change vs veh, TFRC / RFU, ZDHHC17 / Fold change vs veh, ZDHHC17 / RFU, NOM1 / Fold change vs veh, NOM1 / RFU, ARL8B / Fold change vs veh, ARL8B / RFU, ZBTB11 / Fold change vs veh, ZBTB11 / RFU, TAMM41 / Fold change vs veh, TAMM41 / RFU, KIAA1704 /// LOC100996395 / Fold change vs veh, KIAA1704 /// LOC100996395 / RFU, ING1 / Fold change vs veh, ING1 / RFU, TRMT61B / Fold change vs veh, TRMT61B / RFU, FUBP3 / Fold change vs veh, FUBP3 / RFU, TP53 / Fold change vs veh, TP53 / RFU, TNKS2 / Fold change vs veh, TNKS2 / RFU, ZFP14 / Fold change vs veh, ZFP14 / RFU, ACTR2 / Fold change vs veh, ACTR2 / RFU, PPP3R1 / Fold change vs veh, PPP3R1 / RFU, PIK3R1 / Fold change vs veh, PIK3R1 / RFU, HNRNPA1 / Fold change vs veh, HNRNPA1 / RFU, RNF170 / Fold change vs veh, RNF170 / RFU, ZNF28 / Fold change vs veh, ZNF28 / RFU, RNGTT / Fold change vs veh, RNGTT / RFU, OGT / Fold change vs veh, OGT / RFU, BRD1 / Fold change vs veh, BRD1 / RFU, MARS / Fold change vs veh, MARS / RFU, ZNF655 / Fold change vs veh, ZNF655 / RFU, FAHD1 / Fold change vs veh, FAHD1 / RFU, BDP1 / Fold change vs veh, BDP1 / RFU, LRRCC1 / Fold change vs veh, LRRCC1 / RFU, ARID1A / Fold change vs veh, ARID1A / RFU, ZNF146 / Fold change vs veh, ZNF146 / RFU, ZNF330 / Fold change vs veh, ZNF330 / RFU, GPN3 / Fold change vs veh, GPN3 / RFU, C9orf123 / Fold change vs veh, C9orf123 / RFU, N4BP2L2 / Fold change vs veh, N4BP2L2 / RFU, ARFIP1 / Fold change vs veh, ARFIP1 / RFU, FAM179B / Fold change vs veh, FAM179B / RFU, BCL10 / Fold change vs veh, BCL10 / RFU, UHRF1BP1L / Fold change vs veh, UHRF1BP1L / RFU, BET1 / Fold change vs veh, BET1 / RFU, CNOT2 / Fold change vs veh, CNOT2 / RFU, ZNF268 / Fold change vs veh, ZNF268 / Fold change vs veh, ZNF507 / RFU, DGCR2 / Fold change vs veh, DGCR2 / RFU, WDSUB1 / Fold change vs veh, WDSUB1 / Fold change vs veh, HSP90B1 /// MIR3652 / RFU, ADSS / Fold change vs veh, ADSS / RFU, GK / Fold change vs veh, GK / RFU, ZNF148 / Fold change vs veh, ZNF148 / RFU, TAF9 / Fold change vs veh, TAF9 / RFU, SLC1A5 / Fold change vs veh, SLC1A5 / RFU, SLMO2 / Fold change vs veh, SLMO2 / RFU, ABCC4 / Fold change vs veh, ABCC4 / RFU, LOC101060439 /// RAP1B / Fold change vs veh, LOC101060439 /// RAP1B / RFU, RFX7 / Fold change vs veh, RFX7 / RFU, GTPBP10 / Fold change vs veh, GTPBP10 / RFU, CNEP1R1 / Fold change vs veh, CNEP1R1 / RFU, BIVM-ERCC5 /// ERCC5 / Fold change vs veh, BIVM-ERCC5 /// ERCC5 / RFU, ILF3 / Fold change vs veh, ILF3 / RFU 11762660_at / Fold change /veh 11762660_at / RFU VCAN (11757783_s_at) / Fold change /veh VCAN (11757783_s_at) / RFU DDX43 (11728927_at) / Fold change /veh DDX43 (11728927_at) / RFU KRT8 (11758188_x_at) / Fold change /veh KRT8 (11758188_x_at) / RFU NKD1 (11759106_at) / Fold change /veh NKD1 (11759106_at) / RFU SRD5A1 (11742802_a_at) / Fold change /veh SRD5A1 (11742802_a_at) / RFU TPSAB1 /// TPSB2 (11721975_s_at) / Fold change /veh TPSAB1 /// TPSB2 (11721975_s_at) / RFU GSTM3 (11746129_a_at) / Fold change /veh GSTM3 (11746129_a_at) / RFU IL23R (11737362_x_at) / Fold change /veh IL23R (11737362_x_at) / RFU TMEM51 (11727254_a_at) / Fold change /veh TMEM51 (11727254_a_at) / RFU PIWIL2 (11732686_x_at) / Fold change /veh PIWIL2 (11732686_x_at) / RFU ORM1 (11744905_x_at) / Fold change /veh ORM1 (11744905_x_at) / RFU CCDC152 (11743942_at) / Fold change /veh CCDC152 (11743942_at) / RFU ECM1 (11717891_a_at) / Fold change /veh ECM1 (11717891_a_at) / RFU IL23R (11748794_a_at) / Fold change /veh IL23R (11748794_a_at) / RFU TNFAIP8L3 (11732012_x_at) / Fold change /veh TNFAIP8L3 (11732012_x_at) / RFU MBOAT4 (11741988_at) / Fold change /veh MBOAT4 (11741988_at) / RFU 11764193_at / Fold change /veh 11764193_at / RFU TMEM53 (11763286_at) / Fold change /veh TMEM53 (11763286_at) / RFU MAGEB2 (11727129_at) / Fold change /veh MAGEB2 (11727129_at) / RFU TMEM200A (11744735_a_at) / Fold change /veh TMEM200A (11744735_a_at) / RFU CCDC152 (11751479_a_at) / Fold change /veh CCDC152 (11751479_a_at) / RFU FAM211A (11726209_a_at) / Fold change /veh FAM211A (11726209_a_at) / RFU RGS16 (11746705_a_at) / Fold change /veh RGS16 (11746705_a_at) / RFU VCAN (11755009_s_at) / Fold change /veh VCAN (11755009_s_at) / RFU RHOB (11743442_s_at) / Fold change /veh RHOB (11743442_s_at) / RFU RGS16 (11720943_a_at) / Fold change /veh RGS16 (11720943_a_at) / RFU RGS16 (11720944_at) / Fold change /veh RGS16 (11720944_at) / RFU, VPS4B / Fold change vs veh, VPS4B / RFU, CREB1 / Fold change vs veh, CREB1 / RFU, DNAJC13 / Fold change vs veh, DNAJC13 / RFU, GNAQ / Fold change vs veh, GNAQ / RFU, CDK5R1 / Fold change vs veh, CDK5R1 / RFU, ZRANB3 / Fold change vs veh, ZRANB3 / RFU, CUL4A / Fold change vs veh, CUL4A / RFU, CCNY / Fold change vs veh, CCNY / RFU, UFL1 / Fold change vs veh, UFL1 / RFU, COG3 / Fold change vs veh, COG3 / RFU, DIAPH2 / Fold change vs veh, DIAPH2 / RFU, SKA2 / Fold change vs veh, SKA2 / RFU, AFF3 / Fold change vs veh, AFF3 / RFU, LMF1 / Fold change vs veh, LMF1 / RFU, IPO11 / Fold change vs veh, IPO11 / RFU, DFFB / Fold change vs veh, DFFB / RFU, FOXP1 / Fold change vs veh, FOXP1 / RFU, CARD8 / Fold change vs veh, CARD8 / RFU, STRN3 / Fold change vs veh, STRN3 / RFU, ADK / Fold change vs veh, ADK / RFU, RASSF2 / Fold change vs veh, RASSF2 / RFU, WIPF1 / Fold change vs veh, WIPF1 / RFU, LARP1B / Fold change vs veh, LARP1B / RFU, RASA1 / Fold change vs veh, RASA1 / RFU, RB1 / Fold change vs veh, RB1 / RFU, PPFIA1 / Fold change vs veh, PPFIA1 / RFU, MAT2A / Fold change vs veh, MAT2A / RFU, CCT5 / Fold change vs veh, CCT5 / RFU, WDR92 / Fold change vs veh, WDR92 / RFU, CUX1 / Fold change vs veh, CUX1 / RFU, TTC7A / Fold change vs veh, TTC7A / RFU, TMEM135 / Fold change vs veh, TMEM135 / RFU, DEPTOR / Fold change vs veh, DEPTOR / RFU, CPM / Fold change vs veh, CPM / RFU, DNAJB6 / Fold change vs veh, DNAJB6 / RFU, CACNA2D3 / Fold change vs veh, CACNA2D3 / RFU, DTX4 / Fold change vs veh, DTX4 / RFU, TFCP2 / Fold change vs veh, TFCP2 / RFU, GMCL1 /// GMCL1P1 / Fold change vs veh, GMCL1 /// GMCL1P1 / RFU, AEBP2 / Fold change vs veh, AEBP2 / RFU, SNHG1 /// SNORD22 /// SNORD25 /// SNORD26 /// SNORD27 /// SNORD28 /// SNORD29 /// SNORD31 / Fold change vs veh, SNHG1 /// SNORD22 /// SNORD25 /// SNORD26 /// SNORD27 /// SNORD28 /// SNORD29 /// SNORD31 / Fold change (Aza/veh), C12orf56 (ProbeSet 11735607_a_at) / Fold change (ACY-1035/veh), C12orf56 (ProbeSet 11735607_a_at) / Fold change (Aza/veh), FGFR1OP (ProbeSet 11751329_s_at) / Fold change (ACY-1035/veh), FGFR1OP (ProbeSet 11751329_s_at) / Fold change (Aza/veh), VPS36 (ProbeSet 11739960_a_at) / Fold change (ACY-1035/veh), VPS36 (ProbeSet 11739960_a_at) / RFU SYPL1 (11715823_x_at) / Fold change /veh SYPL1 (11715823_x_at) / RFU IGFBP7 (11715501_s_at) / Fold change /veh IGFBP7 (11715501_s_at) / RFU REEP3 (11722064_at) / Fold change /veh REEP3 (11722064_at) / RFU IGLL1 (11728026_x_at) / Fold change /veh IGLL1 (11728026_x_at): dose or concentration left out as unconfirmed. As to conditions: ProbeSet 11732165_x_at; LIST D.

1 compound from article PMC5218480 (PLoS ONE, 2017) can be followed below.

Molecules are shown by their SMILES.

In the case of `Nc1ncn([C@@H]2O[C@H](CO)[C@@H](O)[C@H]2O)c(=O)n1` [azacitidine], the “Fold change vs veh, LMF1” value came out at 0.71.
